Consider 23 molecules from US20230129359A1, “MUSCARINIC RECEPTOR 4 ANTAGONISTS AND METHODS OF USE” (Neurocrine Biosciences, Inc., priority 2020, published 2023).

The test addresses T1, human M4 receptor (Homo sapiens, UniProt P08173).
T1 construct: expressed in transfected cells; host or cells: CHO cells
T1 sequence (P08173 1-479): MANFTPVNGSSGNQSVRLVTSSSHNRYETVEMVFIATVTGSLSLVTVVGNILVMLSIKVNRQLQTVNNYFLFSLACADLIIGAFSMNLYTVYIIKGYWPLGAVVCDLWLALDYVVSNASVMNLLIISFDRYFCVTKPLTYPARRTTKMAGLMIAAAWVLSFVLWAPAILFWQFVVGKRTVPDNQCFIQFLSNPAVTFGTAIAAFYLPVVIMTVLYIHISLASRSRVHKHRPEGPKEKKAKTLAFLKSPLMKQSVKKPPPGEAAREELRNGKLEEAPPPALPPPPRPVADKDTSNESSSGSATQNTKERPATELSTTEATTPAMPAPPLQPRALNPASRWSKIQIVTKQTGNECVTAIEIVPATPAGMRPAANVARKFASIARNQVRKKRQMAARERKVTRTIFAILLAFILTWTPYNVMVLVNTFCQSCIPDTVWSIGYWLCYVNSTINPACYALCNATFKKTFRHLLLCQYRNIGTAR
Briefly: Radioligand ([3H]N-methylscopolamine) binding assay, membranes from CHO cells expressing human M4 receptor. To be noted: Ki against human M4 receptor; membranes from CHO cells; tritiated N-methylscopolamine 1.5 nM; read-out: K. In short, it runs like this:
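Ki values derive from displacement of tritiated N-methylscopolamine (1.5 nM) from human M4 receptor in CHO membranes. Membranes, radioligand and twelve-point compound series were incubated together at 37 °C for 90 minutes in pH 7.4 HEPES/NaCl/MgCl2/EDTA buffer. Rapid vacuum filtration over polyethylenimine-pretreated filters was followed by radioactivity counting.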
Regarding `C[C@@H]1CN(c2ncc(C(F)(F)F)cn2)C[C@H](C)N1C(=O)NC1CC2(C1)CN(Cc1ccc([N+](=O)[O-])cc1)C2` [Compound 314, (2R,6S)-2,6-dimethyl-N-{2-[(4-nitrophenyl)methyl]-2-azaspiro[3.3]heptan-6-yl}-4-[5-(trifluoromethyl)pyrimidin-2-yl]piperazine-1-carboxamide], the Ki lay in the range of 10 to 100 nM.

Take `CC(C)c1ccc(CN2CC3(CC(NC(=O)N4[C@H](C)CN(c5ncc(C(F)(F)F)cn5)C[C@@H]4C)C3)C2)cc1` [Compound 316, (2R,6S)-2,6-dimethyl-N-(2-{[4-(propan-2-yl)phenyl]methyl}-2-azaspiro[3.3]heptan-6-yl)-4-[5-(trifluroomethyl)pyrimidin-2-yl]piperazine-1-carboxamide]: the Ki was 10 to 100 nM.

Take `C[C@@H]1CN(c2ncc(C(F)(F)F)cn2)C[C@H](C)N1C(=O)NC1CC2(C1)CN(Cc1ccncc1)C2` [Compound 317, (2R,6S)-2,6-dimethyl-N-[2-(pyridin-4-ylmethyl)-2-azaspiro[3.3]heptan-6-yl]-4-[5-(trifluoromethyl)pyrimidin-2-yl]piperazine-1-carboxamide]: the Ki fell in the range of 100 to 1000 nM.

Consider `C[C@@H]1CN(c2ncc(C(F)(F)F)cn2)C[C@H](C)N1C(=O)NC1CC2(C1)CN(Cc1ccc(O)cc1)C2` [Compound 319, (2R,6S)-N-{2-[(4-hydroxyphenyl)methyl]-2-azaspiro[3.3]heptan-6-yl}-2,6-dimethyl-4-[5-(trifluoromethyl)pyrimidin-2-yl]piperazine-1-carboxamide], for which the Ki is under 10 nM.

`COC(=O)c1ccc(CN2CC3(CC(NC(=O)N4[C@H](C)CN(c5ncc(C(F)(F)F)cn5)C[C@@H]4C)C3)C2)cc1` [Compound 320, methyl 4-[(6-{[(2R,6S)-2,6-dimethyl-4-[5-(trifluoromethyl)pyrimidin-2-yl]piperazine-1-carbonyl]amino}-2-azaspiro[3.3]heptan-2-yl)methyl]benzoate]: the Ki was in the range of 100 to 1000 nM.

As to `CC(=O)Nc1ccc(CN2CC3(CC(NC(=O)N4[C@H](C)CN(c5ncc(C(F)(F)F)cn5)C[C@@H]4C)C3)C2)cc1` [Compound 321, (2R,6S)-N-{2-[(4-acetamidophenyl)methyl]-2-azaspiro[3.3]heptan-6-yl}-2,6-dimethyl-4-[5-(trifluoromethyl)pyrimidin-2-yl]piperazine-1-carboxamide], the Ki fell in the range of 100 to 1000 nM.

Regarding `C[C@@H]1CN(c2ncc(C(F)(F)F)cn2)C[C@H](C)N1C(=O)NC1CC2(C1)CN(Cc1ccc(OC(F)F)cc1)C2` [Compound 322, (2R,6S)-N-(2-{[4-(difluoromethoxy)phenyl]meth-yl}-2-azaspiro[3.3]heptan-6-yl)-2,6-dimethyl-4-[5-(trifluoromethyl)pyrimidin-2-yl]piperazine-1-carboxamide], the Ki was in the range of 10 to 100 nM.

With `C[C@@H]1CN(c2ncc(C(F)(F)F)cn2)C[C@H](C)N1C(=O)NC1CC2(C1)CN(Cc1ccc(C(F)(F)F)cc1)C2` [Compound 323, (2R,6S)-2,6-dimethyl-N-(2-{[4-(trifluoromethyl)phen-yl]methyl}-2-aza-spiro[3.3]heptan-6-yl)-4-[5-(trifluoromethyl)pyrimidin-2-yl]piperazine-1-carboxamide], the Ki fell in the range of 10 to 100 nM.

As for `C[C@@H]1CN(c2ncc(C(F)(F)F)cn2)C[C@H](C)N1C(=O)NC1CC2(C1)CN(Cc1ccc(Cl)cc1)C2` [Compound 325, (2R,6S)-N-{2-[(4-chlorophenyl)methyl]-2-azaspiro[3.3]heptan-6-yl}-2,6-dimethyl-4-[5-(trifluoromethyl)pyrimidin-2-yl]piperazine-1-carboxamide], the Ki is under 10 nM.

As to `C[C@@H]1CN(c2ncc(C(F)(F)F)cn2)C[C@H](C)N1C(=O)NC1CC2(C1)CN(CC13CC4CC(CC(C4)C1)C3)C2` [Compound 327, (2R,6S)-N-[2-(adamantan-1-ylmethyl)-2-azaspiro[3.3]heptan-6-yl]-2,6-dimethyl-4-[5-(trifluoromethyl)pyrimidin-2-yl]piperazine-1-carboxamide], the Ki is 10 to 100 nM.

Take `C[C@@H]1CN(c2ncc(C(F)(F)F)cn2)C[C@@H](C)N1C(=O)NC1CC2(C1)CN(Cc1ccc(F)cc1)C2` [Compound 328, (2R,6R)-N-{2-[(4-fluorophenyl)methyl]-2-azaspiro[3.3]heptan-6-yl}-2,6-dimethyl-4-[5-(trifluoromethyl)pyrimidin-2-yl]piperazine-1-carboxamide]: the Ki fell in the range of 10 to 100 nM.

Take `C[C@@H]1CN(c2ncc(C#N)cn2)C[C@H](C)N1C(=O)NC1CC2(C1)CN(Cc1ccc(F)cc1)C2` [Compound 330, (2R,6S)-4-(5-cyanopyrimidin-2-yl)-N-{2-[(4-fluorophenyl)methyl]-2-azaspiro[3.3]heptan-6-yl}-2,6-dimethylpiperazine-1-carboxamide]: the Ki lay within 100 to 1000 nM.

For `C[C@@H]1CN(c2ncc(C(F)(F)F)cn2)C[C@H](C)N1C(=O)NC1CC2(C1)CN(CC1CC(F)(F)C1)C2` [Compound 333, (2R,6S)-N-{2-[(3,3-difluorocyclobutyl)methyl]-2-azaspiro[3.3]heptan-6-yl}-2,6-dimethyl-4-[5-(trifluoromethyl)pyrimidin-2-yl]piperazine-1-carboxamide], the Ki is 100 to 1000 nM.

Regarding `CC(c1ccccc1)N1CC2(CC(NC(=O)N3[C@H](C)CN(c4ncc(C(F)(F)F)cn4)C[C@@H]3C)C2)C1` (stereo partly drawn) [Compound 334, (2R,6S)-2,6-dimethyl-N-[2-(1-phenylethyl)-2-azaspiro[3.3]heptan-6-yl]-4-[5-(trifluoromethyl)pyrimidin-2-yl]piperazine-1-carboxamide], the Ki is under 10 nM.

As for `C[C@@H]1CN(c2ncc(C(F)(F)F)cn2)C[C@H](C)N1C(=O)NC1CC2(C1)CN(Cc1ccccc1O)C2` [Compound 337, (2R,6S)-N-{2-[(2-hydroxyphenyl)methyl]-2-azaspiro[3.3]heptan-6-yl}-2,6-dimethyl-4-[5-(trifluoromethyl)pyrimidin-2-yl]piperazine-1-carboxamide], the Ki lay in the range of 10 to 100 nM.

Regarding `Cc1ccsc1CN1CC2(CC(NC(=O)N3[C@H](C)CN(c4ncc(C(F)(F)F)cn4)C[C@@H]3C)C2)C1` [Compound 338, (2R,6S)-2,6-dimethyl-N-{2-[(3-methylthiophen-2-yl)methyl]-2-azaspiro[3.3]heptan-6-yl}-4-[5-(trifluoromethyl)pyrimidin-2-yl]piperazine-1-carboxamide], the Ki is under 10 nM.

Consider `Cc1ccc(CN2CC3(CC(NC(=O)N4[C@H](C)CN(c5ncc(C(F)(F)F)cn5)C[C@@H]4C)C3)C2)s1` [Compound 339, (2R,6S)-2,6-dimethyl-N-{2-[(5-methylthiophen-2-yl)methyl]-2-azaspiro[3.3]heptan-6-yl}-4-[5-(trifluoromethyl)pyrimidin-2-yl]piperazine-1-carboxamide], for which the Ki was under 10 nM.

On to `C[C@@H]1CN(c2ncc(C(F)(F)F)cn2)C[C@H](C)N1C(=O)NC1CC2(C1)CN(Cc1ccc(Cl)s1)C2` [Compound 340, (2R,6S)-N-{2-[(5-chlorothiophen-2-yl)methyl]-2-azaspiro[3.3]heptan-6-yl}-2,6-dimethyl-4-[5-(trifluoromethyl)pyrimidin-2-yl]piperazine-1-carboxamide], for which the Ki was under 10 nM.

As to `C[C@@H]1CN(c2ncc(C(F)(F)F)cn2)C[C@H](C)N1C(=O)OC1(C(F)F)CC2(CN(Cc3ccccc3)C2)C1` [Compound 341, 2-benzyl-6-(difluoromethyl)-2-azaspiro[3.3]heptan-6-yl (2R,6S)-2,6-dimethyl-4-[5-(trifluoromethyl)pyrimidin-2-yl]piperazine-1-carboxylate], the Ki is 10 to 100 nM.

Turning to `C[C@@H]1CN(c2cnc(C(F)(F)F)cn2)C[C@H](C)N1C(=O)OC1(C(F)F)CC2(CN(Cc3ccccc3)C2)C1` [Compound 342, 2-benzyl-6-(difluoromethyl)-2-azaspiro[3.3]heptan-6-yl (2R,6S)-2,6-dimethyl-4-[5-(trifluoromethyl)pyrazin-2-yl]piperazine-1-carboxylate], the Ki fell in the range of 100 to 1000 nM.

As to `C[C@@H]1CN(c2ncc(C(F)(F)F)cn2)C[C@@H](C)N1C(=O)OC1(C(F)F)CC2(CN(Cc3ccccc3)C2)C1` [Compound 344, 2-benzyl-6-(difluoromethyl)-2-azaspiro[3.3]heptan-6-yl (2R,6R)-2,6-dimethyl-4-[5-(trifluoromethyl)pyrimidin-2-yl]piperazine-1-carboxylate], the Ki was 10 to 100 nM.

For the molecule `C[C@@H]1CN(c2ncc(C(F)(F)F)cn2)[C@@H](C)CN1C(=O)OC1(C(F)F)CC2(CN(Cc3ccccc3)C2)C1` [Compound 346, 2-benzyl-6-(difluoromethyl)-2-azaspiro[3.3]heptan-6-yl (2R,5S)-2,5-dimethyl-4-[5-(trifluoromethyl)pyrimidin-2-yl]piperazine-1-carboxylate], the Ki is 10 to 100 nM.

On to `C[C@@H]1CN(c2cnc(C(F)(F)F)cn2)[C@@H](C)CN1C(=O)OC1(C(F)F)CC2(CN(Cc3ccccc3)C2)C1` [Compound 347, 2-benzyl-6-(difluoromethyl)-2-azaspiro[3.3]heptan-6-yl (2R,5S)-2,5-dimethyl-4-[5-(trifluoromethyl)pyrazin-2-yl]piperazine-1-carboxylate], for which the Ki was in the range of 100 to 1000 nM.
